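Exposure lasted 48 hours, with cells grown in 96-well plates and compounds tested at five concentrations. The concentration for 50% growth inhibition is given as GI50.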 Activity calls are given as the source filed them. Cut-off read from the data, not from the text of the source: active = GI50 up to about 1.1 µM and inactive = higher.
Columns and labels:
Assay in all cases: inhibition of tumour cell growth, NCI panel, 48 h
SR = system: SR
EKVX = system: EKVX
NCI-H460 = system: NCI-H460
LOX IMVI = system: LOX IMVI
ACHN = system: ACHN
UO-31 = system: UO-31
DMS-114 = system: DMS-114
SK-MEL-2 = system: SK-MEL-2
SNB-19 = system: SNB-19
RPMI-8226 = system: RPMI-8226
COLO 205 = system: COLO 205
OVCAR-3 = system: OVCAR-3
HCT-116 = system: HCT-116
SN12C = system: SN12C
SK-OV-3 = system: SK-OV-3
SF-539 = system: SF-539
SK-MEL-5 = system: SK-MEL-5
MCF7 = system: MCF7
MDA-MB-435 = system: MDA-MB-435
Hs-578T = system: Hs-578T

Structure (SMILES)	GI50 (SR)	GI50 (EKVX)	GI50 (NCI-H460)	GI50 (LOX IMVI)	GI50 (ACHN)	GI50 (UO-31)	GI50 (DMS-114)	GI50 (SK-MEL-2)	GI50 (SNB-19)	GI50 (RPMI-8226)	GI50 (COLO 205)	GI50 (OVCAR-3)	GI50 (HCT-116)	GI50 (SN12C)	GI50 (SK-OV-3)	GI50 (SF-539)	GI50 (SK-MEL-5)	GI50 (MCF7)	GI50 (MDA-MB-435)	GI50 (Hs-578T)
Cn1c2c([N+](=O)[O-])[se]nc2c(=O)n1-c1ccc([N+](=O)[O-])cc1	0.0474 µM (active)	2.38 µM (inactive)	2.31 µM (inactive)	2.61 µM (inactive)	1.95 µM (inactive)	1.91 µM (inactive)	0.254 µM (active)	3.34 µM (inactive)	6.01 µM (inactive)	1.82 µM (inactive)	1.67 µM (inactive)	1.73 µM (inactive)	0.887 µM (active)	1.71 µM (inactive)	2.72 µM (inactive)	1.88 µM (inactive)	4.43 µM (inactive)			
NC(=O)c1ncn(C2OC(CO)C(O)C2O)c1NC(=S)NC(=O)c1ccccc1 (configuration not stated)	> 100 µM (inactive)	> 100 µM (inactive)	> 100 µM (inactive)	> 100 µM (inactive)	> 100 µM (inactive)	> 100 µM (inactive)	> 100 µM (inactive)	> 100 µM (inactive)	> 100 µM (inactive)	> 100 µM (inactive)	> 100 µM (inactive)	> 100 µM (inactive)	> 100 µM (inactive)	> 100 µM (inactive)	> 100 µM (inactive)	> 100 µM (inactive)	> 100 µM (inactive)			
CNC(=O)/C(=C/c1ccc(OC)cc1)c1cc(OC)c(OC)c(OC)c1	0.513 µM (active)	10.1 µM (inactive)	1.47 µM (inactive)	4.88 µM (inactive)	8.65 µM (inactive)	6.44 µM (inactive)	2.3 µM (inactive)	3.89 µM (inactive)	4.58 µM (inactive)	2.99 µM (inactive)	1.16 µM (inactive)	0.641 µM (active)	1.55 µM (inactive)	5.2 µM (inactive)	1.6 µM (inactive)	1.34 µM (inactive)	0.593 µM (active)	0.769 µM (active)	0.281 µM (active)	1.61 µM (inactive)
Nc1ncnc2c1ncn2COC/C=C/I	> 100 µM (inactive)	77.6 µM (inactive)	> 100 µM (inactive)	> 100 µM (inactive)	> 100 µM (inactive)	> 100 µM (inactive)	> 100 µM (inactive)	> 100 µM (inactive)	> 100 µM (inactive)	> 100 µM (inactive)	> 100 µM (inactive)	> 100 µM (inactive)	> 100 µM (inactive)	> 100 µM (inactive)	> 100 µM (inactive)	> 100 µM (inactive)	> 100 µM (inactive)			
COc1cc(CCc2ccc(OCCN(C)C)cc2)cc(OC)c1OC	49.8 µM (inactive)	> 100 µM (inactive)	> 100 µM (inactive)	34.8 µM (inactive)	> 100 µM (inactive)	49.9 µM (inactive)	47.8 µM (inactive)		> 100 µM (inactive)	28.6 µM (inactive)	20.3 µM (inactive)	64.1 µM (inactive)	60.4 µM (inactive)	> 100 µM (inactive)		> 100 µM (inactive)	24.1 µM (inactive)			
CCN(CC)CCSc1nc2cccc([N+](=O)[O-])c2[nH]1		> 100 µM (inactive)		> 100 µM (inactive)			> 100 µM (inactive)			> 100 µM (inactive)	> 100 µM (inactive)	> 100 µM (inactive)		> 100 µM (inactive)	> 100 µM (inactive)	> 100 µM (inactive)	> 100 µM (inactive)			
Cc1cc(C)nc(NS(=O)(=O)c2ccc(Nc3c4ccccc4nc4c(C(=O)N5CCN(CCOS(C)(=O)=O)CC5)ccc(Cl)c34)cc2)n1	> 100 µM (inactive)		> 100 µM (inactive)		> 100 µM (inactive)	> 100 µM (inactive)	> 100 µM (inactive)	> 100 µM (inactive)	> 100 µM (inactive)	> 100 µM (inactive)	> 100 µM (inactive)	> 100 µM (inactive)	> 100 µM (inactive)	> 100 µM (inactive)	> 100 µM (inactive)	> 100 µM (inactive)	> 100 µM (inactive)			
COC(=O)c1cc(CNCCc2c[nH]c3ccccc23)on1	> 100 µM (inactive)	> 100 µM (inactive)	> 58.1 µM (inactive)	> 100 µM (inactive)	> 60.8 µM (inactive)	> 100 µM (inactive)	> 100 µM (inactive)	> 100 µM (inactive)	> 100 µM (inactive)	> 100 µM (inactive)	> 100 µM (inactive)	> 100 µM (inactive)	> 100 µM (inactive)	> 100 µM (inactive)	> 100 µM (inactive)	74.1 µM (inactive)	> 100 µM (inactive)	> 100 µM (inactive)		> 100 µM (inactive)
CC1=C(Oc2ccccc2)C(CCC(=O)O)c2c(O)cc(Cl)c(O)c21 (configuration not stated)	> 100 µM (inactive)	71.9 µM (inactive)	> 100 µM (inactive)	> 100 µM (inactive)		> 100 µM (inactive)	> 100 µM (inactive)	> 100 µM (inactive)	> 100 µM (inactive)	> 100 µM (inactive)	> 100 µM (inactive)	> 100 µM (inactive)	> 100 µM (inactive)	> 100 µM (inactive)		> 100 µM (inactive)	> 100 µM (inactive)			
O=C(O)CCC(=O)N1c2ccccc2CC1c1c[nH]c2ccccc12 (configuration not stated)		> 100 µM (inactive)	> 100 µM (inactive)	> 100 µM (inactive)	> 100 µM (inactive)	33.2 µM (inactive)	> 100 µM (inactive)	> 100 µM (inactive)	> 100 µM (inactive)	> 100 µM (inactive)	> 100 µM (inactive)	> 100 µM (inactive)	> 100 µM (inactive)	> 100 µM (inactive)	> 100 µM (inactive)	> 100 µM (inactive)	> 100 µM (inactive)			
Cc1cc(N(CCC#N)CCC#N)ccc1/C=C(\NC(=O)/C=C/c1ccccc1)NC(=O)Nc1ccccc1C		86.1 µM (inactive)	76.2 µM (inactive)	63.4 µM (inactive)	55.3 µM (inactive)	> 100 µM (inactive)	89.7 µM (inactive)	38.7 µM (inactive)	32.7 µM (inactive)	> 100 µM (inactive)	> 100 µM (inactive)	> 100 µM (inactive)	> 100 µM (inactive)	77.3 µM (inactive)		38.1 µM (inactive)	61 µM (inactive)			
C=C1CCCC(C)(C)[C@@H]1CC/C(C)=C/Cn1c2cccc(=O)c-2nc2ccccc21		4.4 µM (inactive)	1.21 µM (inactive)	1.15 µM (inactive)		2.77 µM (inactive)	1.09 µM (active)	2.37 µM (inactive)	4.51 µM (inactive)	2.04 µM (inactive)	1.96 µM (inactive)	3.18 µM (inactive)	1.35 µM (inactive)	1.59 µM (inactive)	4.15 µM (inactive)	1.66 µM (inactive)	3.95 µM (inactive)	2.55 µM (inactive)		

— ChEMBL document CHEMBL1201862, “PubChem BioAssay data set” (2004)
